Experiments:
Assay in all cases: Biological Example 3 glasshouse assay for herbicidal activity, using various adjuvant systems, post-emergence
Assay type in all cases: in vivo
Eleusine indica (ELEIN) = conditions: 8 g/ha, 14 DAA, adjuvant system per compound
Description: (§1) Post-emergence foliar spray application, 200 L/ha, usually one or two replicates for the weeds (depending on application rate), and two replicates for soybean.
(§2) Standard warm conditions (tropical), in glasshouse. Specifically, the glasshouse bay conditions are 24° C./18° C. day/night; 16/8 hours light/dark; 65% humidity.
(§3) The herbicidal application takes place at the following growth stages for plants which include inter alia one or more of the following plants (usually the herbicidal application takes place on at least the following six plants: DIGSA, ELEIN, SETFA, GLXMA Nikko, and GLXMA TMG133, and either BRADC or BRAPP):
Eleusine indica (ELEIN)—growth stage 12 or 13
(§4) Each test Compound is applied with one of the following adjuvant systems (all percentages are final concentrations in the aqueous spray mixture):
(§5) Adjuvant system 1: 0.5% v/v Adigor™ *, 1.0% v/v AMS (ammonium sulphate) and 12.5% v/v IPA (isopropyl alcohol).
(§6) Adjuvant system 2: 0.5% v/v Adigor™ * and 12.5% v/v IPA (isopropyl alcohol).
(§7) Adjuvant system 3: 0.5% v/v Hexamoll™ DINCH **, 1.0% v/v AMS (ammonium sulphate) and 12.5% v/v IPA (isopropyl alcohol).
(§8) Seeds of the weed plants, typically including inter alia [either Brachiaria decumbens (BRADC) or Brachiaria platyphylla (BRAPP)], Digitaria sanguinalis (DIGSA), Eleusine indica (ELEIN), Setaria faberi (SETFA) are sown in seed trays (troughs) containing clay loam soil (pH 7.0, 2.2% organic matter, “Trough Mix A”); and soybean seed is sown in pots containing the same soil with 3 soybean seedlings per pot. The plants are sprayed with the test herbicide when they reach the growth stages mentioned above.
(§9) The test herbicidal solutions are prepared by mixing the appropriate aliquots of the test substance(s) and the adjuvant system indicated above *** in deionised water to give the desired treatment concentration. […]
(§10) A visual assessment of the % herbicidal damage is made 7 and 14 Days After herbicide Application (DAA) (or, in a minority of cases, 7 and 15 DAA), and the results are recorded as % visual herbicidal damage where 0%=no damage to plants and 100%=plant totally killed. […]

[1] = tested on: Glycine max (GLXMA, soybean) cultivar “TMG133”; conditions: 120 g/ha, 14 or 15 DAA, adjuvant system per compound
Description: as §1, §2, §3
Glycine max (GLXMA, soybean) cultivar “TMG133”—which is Roundup Ready™glyphosate-tolerant soybean cultivar TMG133 (typically available from Monsanto in Brazil)—growth stage: 1st trifoliate.
Each test Compound is applied with one of the following adjuvant systems (all percentages are final concentrations in the aqueous spray mixture): […]
as §10
Glycine max (GLXMA, soybean) cultivar “TMG133” is Roundup Ready™ glyphosate-tolerant soybean cultivar TMG133, and is typically available from Monsanto in Brazil.

[2] = tested on: Digitaria sanguinalis (DIGSA); conditions: 8 g/ha, 14 DAA, 0.5% v/v Adigor + 1.0% v/v AMS + 12.5% v/v IPA
Description: as §1, §2, §3
Digitaria sanguinalis (DIGSA)—growth stage 12 or 13
as §4, §5, §6, §7
Seeds of the weed plants, typically including inter alia [either Brachiaria decumbens (BRADC) or Brachiaria platyphylla (BRAPP)], Digitaria sanguinalis (DIGSA), Eleusine indica (ELEIN), Setaria faberi (SETFA) are sown in seed trays (troughs) containing clay loam soil (pH 7.0, 2.2% organic matter, “Trough Mix A”); and soybean seed is sown in pots containing the same soil with 3 soybean seedlings per pot. The plants are sprayed with the test herbicide when they reach the growth stages mentioned above. […]
as §10

[3] = tested on: Glycine max (GLXMA, soybean) cultivar “Nikko”; conditions: 120 g/ha, 14 or 15 DAA, adjuvant system per compound
Description: as §1, §2, §3
Glycine max (GLXMA, soybean) cultivar “Nikko”—growth stage: 1st trifoliate
as §4, §5
Adjuvant system 2: 0.5% v/v Adigor™ * and 12.5% v/v IPA (isopropyl alcohol). […]
as §10

Setaria faberi (SETFA) = conditions: 8 g/ha, 14 DAA, 0.5% v/v Adigor + 1.0% v/v AMS + 12.5% v/v IPA
Description: as §1, §2, §3
Setaria faberi (SETFA)—growth stage 12 or 13
as §4, §5, §6, §7, §8, §9, §10

Compound | percentage control of Eleusine indica (ELEIN) (Eleusine indica (ELEIN)) | percentage phytotoxicities on Glycine max (GLXMA, soybean) cultivar “TMG133” [1] | percentage control of Digitaria sanguinalis (DIGSA) [2] | percentage phytotoxicities on Glycine max (GLXMA, soybean) cultivar “Nikko” [3] | percentage control of Setaria faberi (SETFA) (Setaria faberi (SETFA))
CC#Cc1cc(C)c(C2C(=O)C3CCC(C3)C2=O)c(C)c1 (centres unmarked) [Compound A-5] | 45% | – | – | – | –
CC#Cc1cc(Cl)c(C2C(=O)CC3(CCOCC3)CC2=O)c(OC)c1 [Compound A-20, 9-(2-Chloro-6-methoxy-4-prop-1-ynyl-phenyl)-3-oxa-spiro[5.5]undecane-8,10-dione] | 95% | 85% | 100% | 85% | 98%
CC#Cc1cc(C)c(C2C(=O)CC(CCSC)CC2=O)c(C)c1 (centres unmarked) [Compound A-21, 2-(2,6-Dimethyl-4-prop-1-ynyl-phenyl)-5-(2-methylsulfanyl-ethyl)cyclohexane-1,3-dione] | – | 85% | – | 85% | –

Source: patent US9615577B2, “Herbicidally active cyclic dione compounds, or derivatives therefor, substituted by a phenyl which has an alkynyl-containing substituent” (Syngenta Limited, priority 2012, dated 2017)
